Tests used:
Format in all cases: cell-based, human
[1] = system: hPSC-derived endothelial progenitors (Passage 1 ECs); experiment: Immunocytochemistry of Passage 1 ECs treated with Wnt ligands, CHIR or conditioned media
Protocol: Collagen IV (Sigma-Aldrich) was dissolved in 0.5 mg/mL acetic acid to a final concentration of 1 mg/mL. Collagen IV-coated plates were prepared by diluting a volume of this stock solution 1:100 in water, adding the resulting solution to tissue culture plates, or #1.5 glass bottom plates (Cellvis, Sunnyvale, CA) for cells intended for confocal imaging (1 mL per well for 6-well plates, 0.5 mL per well for 12-well plates, 0.25 mL per well for 24-well plates), and incubating the plates for 1 h at RT. Collagen IV coating solution was removed and EPCs obtained as described above were suspended in hECSR medium and plated at approximately 3×10^4 cells/cm^2. In some experiments, cells were suspended in NR-CM or Astro-CM. In some experiments, ligands and small molecules were added to hECSR medium: CHIR 99021 (Tocris) was used at 4 μM except where indicated; DMSO (Sigma-Aldrich) was used as a vehicle control for CHIR; Wnt3a (R&D Systems) was used at 20 ng/mL; Wnt7a (Peprotech, Rocky Hill, NJ) was used at 50 ng/mL; Wnt7b (Abnova, Tapei, Taiwan) was used at 50 ng/mL; R-spondin 1 (Rspo1; Peprotech) was used at 50 ng/mL; doxycycline was used at 1, 2, or 4 μg/mL. The hECSR medium or CM, including any ligands or small molecules, was replaced every other day until confluent (typically 6 days). We denote this time point “Passage 1.”
Immunocytochemistry was performed in 24-well plates. Cells were washed once with 500 μL DPBS and fixed with 500 μL cold (−20° C.) methanol for 5 min, except cells intended for calponin/SM22a and CD31/Ki67 detection, which were fixed with 500 μL of 4% paraformaldehyde for 15 min. Cells were washed three times with 500 μL DPBS and blocked in 150 μL DPBS supplemented with 10% goat serum (Life Technologies) for 1 h at room temperature, except cells intended for calponin/SM22α detection, which were blocked and permeabilized in DPBS supplemented with 3% BSA and 0.1% Triton X-100, or cells intended for CD31/Ki67 detection, which were blocked and permeabilized in DPBS supplemented with 5% non-fat dry milk and 0.4% Triton X-100. Primary antibodies diluted in 150 μL of the above blocking solutions (see Table 6 for antibody information) were added to cells and incubated overnight at 4° C. on a rocking platform. Cells were washed three times with 500 μL DPBS. Secondary antibodies diluted in 150 μL of the above blocking solutions (see Table 6 for antibody information) were added to cells and incubated for 1 h at room temperature on a rocking platform, protected from light. Cells were washed three times with 500 μL DPBS, followed by 5 min incubation with 500 μL DPBS plus 4 μM Hoechst 33342 (Life Technologies). Images were acquired using an Eclipse Ti2-E epifluorescence microscope (Nikon, Tokyo, Japan) with a 20× objective or an A1R-Si+ confocal microscope (Nikon) with a 100× oil objective. Confocal images were acquired with 1 μm slice spacing.
Images were analyzed using FIJI (ImageJ) software. For epifluorescence images, 5 fields (20×) were analyzed per well, with 3-4 wells per treatment condition. For quantification of cell number, EC colonies were manually outlined, and the Analyze Particles function was used to estimate the number of nuclei within the EC colonies. Nuclei outside the EC colonies were manually counted. EC purity (% EC) was calculated as the number of nuclei within EC colonies relative to total nuclei. To estimate % GLUT-1^+ ECs, cells within the EC colonies with membrane-localized GLUT-1 immunoreactivity (e.g., arrowheads in FIG. 24B) were manually counted. To estimate % Ki67^+ ECs, cells within the EC colonies with at least one nuclear-localized Ki67 punctum were manually counted. For quantification of fluorescence intensity in epifluorescence images, EC colonies were manually outlined, and the Measure function was used to obtain the mean fluorescence intensity for each image channel (fluorophore). A cell-free area of the plate was similarly quantified for background subtraction. […]

CD31+ Passage 1 ECs = experiment: Dextran accumulation assay (fluid-phase endocytosis); conditions: 10 kDa dextran, 2 h, 37° C., CHIR vs DMSO
Protocol: A fixable, Alexa Fluor 488-conjugated dextran with an average molecular weight of […] (Invitrogen) was used as a tracer to estimate total fluid-phase endocytosis. Dextran was added at 10 μM to the medium of Passage 1 cultures. Plates were incubated on rotating platforms at 37° C. or 4° C. for 2 h. Medium was removed and cells were washed once with DPBS, and then incubated with Accutase for 10 min at 37° C. Cell suspensions were passed through 40 μm cell strainers into 4× volume of DMEM/F-12 and centrifuged for 5 min, 200×g. Cells were resuspended in MACS buffer and incubated with the CD31-APC antibody (Miltenyi Biotec) for 30 min at 4° C., protected from light. Cell suspensions were brought to a volume of 5 mL with MACS buffer and centrifuged at 4° C. for 5 min, 200×g. Pellets were resuspended in DPBS supplemented with 4% paraformaldehyde and incubated for 15 min at room temperature, protected from light. Cells were centrifuged for 5 min, 200×g. Pellets were resuspended in MACS buffer and analyzed on a BD FACSCalibur flow cytometer (BD Biosciences). FlowJo software was used to gate CD31^+ cells and quantify geometric mean fluorescence intensity and coefficient of variation (CV) of dextran.

Passage 3 ECs = experiment: Transendothelial electrical resistance and sodium fluorescein permeability; conditions: CHIR-treated vs DMSO-treated
[2] = 4 μM CHIR vs control, Passage 1 ECs

For `Cc1c[nH]c(-c2cnc(NCCNc3ccc(C#N)cn3)nc2-c2ccc(Cl)cc2Cl)n1` [CHIR, CHIR 99021], the “caveolin-1 expression vs DMSO” value ([1]; 2 μM CHIR) was “did not lead to increased caveolin-1 expression”, the “claudin-5 or GLUT-1 expression vs control” value ([1]; 2 μM CHIR) was “did not elevate claudin-5 or GLUT-1 expression” and the “EC number and EC purity” value ([1]; 2 μM CHIR vs 4 μM CHIR) was “less effective in increasing EC number and EC purity than 4 μM CHIR”. The “increase in GLUT-1 abundance” value [1, 2] was roughly 30 fold, the “increase in average claudin-5 abundance” value [1, 2] was “approximately 1.5 fold” and the “increase in caveolin-1” value [1, 2] was 4 fold. For the same compound, the “ECs with induced GLUT-1 expression” value ([1]; 4 μM CHIR, Passage 1 ECs, IMR90-4) was “approximately 90%”, the “EC number, EC purity, claudin-5 expression” value ([1]; 6 μM CHIR vs 4 μM) was “did not improve EC number, EC purity, or claudin-5 expression” and the GLUT-1 abundance ([1]; 6 μM CHIR vs 4 μM) was “further increased GLUT-1 abundance”. The caveolin-1 abundance ([1]; 6 μM CHIR vs 4 μM) was “further increased caveolin-1 abundance”, the “increases in GLUT-1 abundance” value ([1]; CHIR treatment initiated immediately after MACS) was 10- to 40 fold and the “EC purity (proportion of ECs compared to SMLCs)” value ([1]; Passage 1 cultures, 6 days treatment) was “increasing EC purity to a level similar to that achieved with Wnt7a”. For the same compound, the “EC purity, EC number, caveolin-1 and GLUT-1 expression” value ([1]; additional hPSC line (WTC11)) was “conserved”, the claudin-5 upregulation ([1]; additional hPSC line (WTC11)) was “not apparent” and the “reduction of PLVAP abundance” value ([1]; confocal microscopy, Passage 1 ECs, CHIR vs DMSO) was “approximately 20%”. The “distribution of dextran intensities” value (CD31+ Passage 1 ECs) was “broadening of the distribution of dextran intensities”, the “geometric mean dextran signal” value (CD31+ Passage 1 ECs) was “did not change the geometric mean dextran signal” and the “transendothelial electrical resistance (TEER)” value (Passage 3 ECs) was “elevated transendothelial electrical resistance”.

From US20230375530A1, “HUMAN BLOOD-BRAIN BARRIER MODEL FOR IMMUNOLOGICAL STUDIES” (WISCONSIN ALUMNI RESEARCH FOUNDATION, priority 2020, published 2023)
